In PubChem BioAssay (NCI):
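Exposure lasted 48 hours, with cells grown in 96-well plates and compounds tested at five concentrations. GI50 is the concentration that inhibits growth by half. The concentration for full growth arrest is given as TGI.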

How the values were obtained:
Assay in all cases: NCI anticancer screen, dose series, 48 h
HCT-116 colon = system: HCT-116 colon
786-0 renal = system: 786-0 renal
UACC-62 melanoma = system: UACC-62 melanoma
HCC-2998 colon = system: HCC-2998 colon
TK-10 renal = system: TK-10 renal
EKVX NSCLC = system: EKVX NSCLC
HS 578T breast = system: HS 578T breast
HL-60(TB) leukemia = system: HL-60(TB) leukemia
SF-268 CNS = system: SF-268 CNS
MDA-MB-435 = system: MDA-MB-435
RXF 393 renal = system: RXF 393 renal
MOLT-4 leukemia = system: MOLT-4 leukemia
SK-MEL-5 melanoma = system: SK-MEL-5 melanoma
NCI-H23 lung = system: NCI-H23 lung
A549 NSCLC = system: A549 NSCLC
MALME-3M melanoma = system: MALME-3M melanoma
MDA-MB-231 breast = system: MDA-MB-231 breast
CCRF-CEM leukemia = system: CCRF-CEM leukemia
MCF7 breast = system: MCF7 breast
NCI-H522 lung = system: NCI-H522 lung
UO-31 renal = system: UO-31 renal
LOX IMVI melanoma = system: LOX IMVI melanoma
DU-145 prostate = system: DU-145 prostate
SK-OV-3 ovarian = system: SK-OV-3 ovarian
SF-295 CNS = system: SF-295 CNS
RPMI-8226 leukemia = system: RPMI-8226 leukemia
IGROV1 ovarian = system: IGROV1 ovarian
KM12 colon = system: KM12 colon
SF-539 CNS = system: SF-539 CNS

## Cc1c2cnccc2c(C)c2c1c1cc(CO)ccc1n2C
HCT-116 colon
  GI50: 45.4 nM
  TGI: 651 nM
786-0 renal
  GI50: 302 nM
  TGI: 2660 nM
UACC-62 melanoma
  GI50: 232 nM
  TGI: 1030 nM
HCC-2998 colon
  GI50: 465 nM
  TGI: 1930 nM
TK-10 renal
  GI50: 553 nM
  TGI: 4150 nM
EKVX NSCLC
  GI50: 325 nM
  TGI: 1290 nM
HS 578T breast
  GI50: 521 nM
  TGI: 3130 nM
HL-60(TB) leukemia
  GI50: 408 nM
  TGI: 2100 nM
SF-268 CNS
  GI50: 268 nM
  TGI: 1690 nM
MDA-MB-435
  GI50: 349 nM
  TGI: 1390 nM
RXF 393 renal
  GI50: 209 nM
  TGI: 1040 nM
MOLT-4 leukemia
  GI50: 286 nM
  TGI: 2380 nM
SK-MEL-5 melanoma
  GI50: 425 nM
  TGI: 1580 nM
NCI-H23 lung
  GI50: 273 nM
  TGI: 1340 nM
A549 NSCLC
  GI50: 330 nM
  TGI: 2070 nM
MALME-3M melanoma
  GI50: 294 nM
  TGI: 1180 nM
MDA-MB-231 breast
  GI50: 348 nM
  TGI: 1790 nM
CCRF-CEM leukemia
  GI50: 328 nM
  TGI: 2610 nM
MCF7 breast
  GI50: 203 nM
  TGI: 1370 nM
NCI-H522 lung
  GI50: 350 nM
  TGI: 1910 nM
UO-31 renal
  GI50: 255 nM
  TGI: 1910 nM
LOX IMVI melanoma
  GI50: 255 nM
  TGI: 1210 nM
DU-145 prostate
  GI50: 288 nM
  TGI: 1530 nM
SK-OV-3 ovarian
  GI50: 324 nM
  TGI: 1350 nM
SF-295 CNS
  GI50: 316 nM
  TGI: 1660 nM
RPMI-8226 leukemia
  GI50: 260 nM
  TGI: 1380 nM
IGROV1 ovarian
  GI50: 130 nM
  TGI: 1220 nM
KM12 colon
  GI50: 303 nM
  TGI: 1820 nM
SF-539 CNS
  GI50: 343 nM
